Measurements: patent publication US9429582B2, “Tyrosine-phosphorylated WBP2, a novel cancer target and biomarker” (National University of Singapore, priority 2010, dated 2016)

Key:
TCF/β-catenin signaling = assay: TCF reporter activity / β-catenin recruitment in Y192-231E-expressing MCF7; assay type: cell-based, human; conditions: preliminary study, data not shown
Method: The Dual-Luciferase TM reporter assay system (Promega) was used for sequential measurement of Firefly and Renilla luciferase activities according to manufacturer's instructions. Quantification of luciferase activities were carried out using a luminometer (Sirius).
The Dual-Luciferase TM reporter assay system (Promega) was used for sequential measurement of Firefly and Renilla luciferase activities according to manufacturer's instructions. Quantification of luciferase activities were carried out using a luminometer (Sirius, Berthold-DS Inc, Germany). Briefly, transfected cells in 24-well plate were rinsed once with ice-cold PBS and lysed in 1× Passive Lysis Buffer (PLB) for 15 min at RT. The crude lysate was first incubated with Luciferase Assay Substrate (LAR II) to measure the firefly luciferase activity, followed by incubation with Stop and Glo Substrate to measure the Renilla luciferase activity.
Next, we examined the relative contributions of ERα and Wnt pathway to WBP2-mediated cellular proliferation. […] Even at higher doses of up to 2000 nM, retardation of proliferation by Tamoxifen of Y192-231E-expressing cells remains unremarkable. FH535 is a recently identified small-molecule inhibitor of TCF/β-catenin signaling (31). […] No synergistic effect could be observed when Tamoxifen and FH535 were administered in combination.

[1] = tested on: WBP2-Y192-231E mutant-expressing MCF7; assay: Cell proliferation (MTS / cell numbers) of WBP2-Y192-231E mutant-expressing MCF7; assay type: cell-based, human
Method: A: Whole cell lysates from vector, WBP2-WT, WBP2-Y192-231E mutant and WBP2-Y192-231F mutant expressing MCF7 or Y192-231E mutant expressing MCF7 with WBP2 knockdown were used for IB analysis with antibodies indicated. B: Vector, WBP2-WT, WBP2-Y192-231E mutant or WBP2-Y192-231F mutant-expressing MCF7 were co-transfected with TOPFlash (top panel) or ERE-Luciferase (bottom panel) reporter construct. For cells co-transfected ERE-luciferase, they were either left alone or stimulated with 50 ng/ml Wnt3a ligand for 16 hrs. TCF/ERα luciferase activities in various conditions were then assayed. **P<0.01, ***P<0.001, Student's t-test (2-tailed). C: Vector or WBP2-Y192-231E mutant-expressing MCF7 were treated with indicated concentrations of Tamoxifen(Tam) and/or FH535. Cell numbers were measured. D: Whole cell lysates from WBP2-Y192-231E mutant-expressing MCF7 treated with 2 μM Tam and/or 15 μM FH5353 were harvested at day 2-4 post-treatment and used for IB analysis with antibodies indicated.
Effect of knockdown of E2F1 and E2F3 on MCF7 cells overexpressing WBP2-Y192-231E. A. MCF7 cells expressing WBP2-Y192-231E were transfected with indicated siRNAs and knockdown efficiency was confirmed using western blotting. B. Cells were co-transfected with indicated siRNAs and E2F reporter plasmid and harvested for luciferase assay after 48 hours. Luciferase readings were normalized against constitutive TK promoter renilla luciferase readings. C. Cells were transfected with indicated siRNAs and BrdU incorporation assay was performed. Percentages of BrdU positive cells relative to control siRNA treated cells were plotted as bar charts. D. Cells were transfected with indicated siRNAs. MTS assay was performed on day 3. Percentages of cell proliferation relative to control siRNA treated cells were plotted as bar charts.
Whole cell lysates from vector, WBP2-WT, WBP2-Y192-231E mutant and WBP2-Y192-231F mutant expressing MCF7 (A) or Y192-231E mutant expressing MCF7 with WBP2 knockdown (B) were used for IB analysis with antibodies indicated. Their expression levels were quantified in three independent experiments and the averages were presented relative to actin. Representative blots (order in lanes from left to right: vector, WBP2, Y192-231E, Y192F) were presented as insets to the bar graphs. **P<0.01, ***P<0.001, Student's t-test (2-tailed) relative to vector. Vector, WBP2-WT, WBP2-Y192-231E mutant or WBP2-Y192-231F mutant-expressing MCF7 were cotransfected with TOPFlash(C) or ERE-Luciferase(D) reporter construct. For cells co-transfected ERE luciferase, they were either left alone or stimulated with 50 ng/ml Wnt3a ligand for 16 hrs. TCF(C)/ER[…](D) luciferase activities in various conditions were then assayed and analyzed in relative to untreated vector control. **P<0.01, ***P<0.001, Student's t-test (2-tailed). E: Vector or WBP2-Y192-231E mutant-expressing MCF7 were treated with indicated concentrations of 2 µM tamoxifen (Tam) and/or 15 µM FH535 for 4 days. Cell numbers were measured daily and compared in relative to vehicle treated vector-expressing cells on Day 0. F: Vector or WBP2-Y192-231E mutant-expressing MCF7 were treated with indicated concentrations (0-50 µM) of FH535 for 2 days. Cell numbers were measured and compared in relative to vehicle-treated cells. Their […] were analyzed statistically with SPSS 13.0. G: Whole cell lysates from WBP2-Y192-231E mutant-expressing MCF7 treated with 2 μM Tam and/or 15 μM FH5353 were harvested at day 2-4 post-treatment and used for IB analysis with antibodies indicated. H: Vector or WBP2-Y192-231E mutant-expressing MCF7 were treated with indicated concentrations of 100 nM fulvestrant and/or 15 µM FH535 for 4 days. Cell numbers were measured on day 2 and day 4 and compared in relative to vehicle-treated control at each day (Top Panel). These treated cells were harvested for IB analysis with antibodies indicated (Bottom Panel). […]

Cc1cc([N+](=O)[O-])ccc1NS(=O)(=O)c1cc(Cl)ccc1Cl [FH535]
TCF activity reduced (TCF/β-catenin signaling; 24-hr post-treatment with 15 μM FH535 in Y192-231E-expressing MCF7): 50% | recruitment of β-catenin (TCF/β-catenin signaling): inhibits | blocking of phospho-WBP2-mediated cancer cell growth compared with tamoxifen and fulvestrant [1]: more pronouncedly | sensitivity of Y192-231E-expressing MCF7 to FH535-mediated growth inhibition compared with vector-expressing MCF7 ([1]; 0-50 μM FH535 for 2 days): more sensitive | inhibition of growth / reduction of proliferation ([1]; MCF7 cells expressing Y192-231E mutant, day 4, 100 nM fulvestrant or 15 μM FH535): ~65% | growth inhibition, dose dependence ([1]; Y192-231E stable transfectant, 0-50 μM FH535 for 2 days): dose dependent growth inhibition | growth rate ([1]; Y192-231E-expressing MCF7, FH535 alone (15 μM), to close to vector-expressing MCF7 at day 3): significantly reduced
